Test results from PMC12040169 (PLOS Biology, 2025).

Test: in vitro
Settings: human, hela cells, % viability

Row | SMILES | viability at 28.5 h, 10 µM [%]
1 | CC(=O)NC(N(C)S(=O)(=O)c1ccc(C)cc1)C(Cl)(Cl)Cl (centres unmarked) [CBK262662] | 93.8
2 | COc1ccc(-c2ccc(OC)cc2C(=O)Nc2ccc3c(c2)N(C)C(=O)CO3)cc1 [CBK285650] | 92
3 | COCC(=O)NC1CCN(CC2(c3ccccc3F)CCCC2)CC1 [CBK284850] | 114
4 | COC(=O)CCc1ccc(S(=O)(=O)N2CCCN(Cc3cccc(Cl)c3Cl)CC2)cc1 [CBK062988] | 93.5
5 | COc1cc(CNc2ccccc2Cl)ccc1OCC(=O)O [CBK287045] | 89.7
6 | O=C(Nc1ccccc1)N1C[C@@H]2OCC(=O)N(Cc3ccc(F)cc3)[C@@H]2C1 [CBK289683] | 82
7 | Cc1cccc(CN(CCN)C(=O)Nc2ccc(C(C)(C)C)cc2)n1 [CBK046230C] | 96.4
8 | CCc1cc(Br)ccc1S(=O)(=O)NC1CCOC1=O (centres unmarked) [CBK044385] | 97.5
9 | O=C1CN(C(=O)c2cccc(Cl)c2)c2ccccc2N1 [CBK017844] | 101
10 | O=C(NCCOc1ccccc1)c1nccnc1-c1ccc(COc2ccc3c(c2)CCCC3)cc1 [CBK050852] | 91.2
11 | CC(Oc1cccc2cccnc12)C(=O)N/N=C/c1ccc(-c2ccc(Br)cc2)o1 (centres unmarked) [CBK262838] | 93.4
12 | Cc1sc2nc(SCCCN3C(=O)c4cccc5cccc(c45)C3=O)nc(N)c2c1C [CBK264424] | 76.6
13 | O=[N+]([O-])c1ccc(N2CCN(S(=O)(=O)c3ccc4ccccc4c3)CC2)cc1NC1CC1 [CBK264361] | 111
14 | O=C(OCC#CCSc1nnc(-c2ccccc2)o1)c1ccc([N+](=O)[O-])cc1 [CBK265588] | 107
15 | CCC(C)(C)c1ccc(S(=O)(=O)N(CCC#N)Cc2cccnc2)cc1 [CBK043960] | 89.6
16 | COc1cc2c(cc1OC)CN(C(=O)CSc1nc(-c3cccnc3)ccc1C#N)CC2 [CBK267464] | 69.8
17 | Cc1cc(C=O)c(C)n1-c1ccc(Oc2ccc([N+](=O)[O-])cn2)cc1 [CBK264167] | 99.9
18 | COc1ccc([C@@]23CC[C@H](NC(=O)CSc4nccn4C)C[C@@H]2N(C)CC3)cc1OC [CBK036444] | 84.7
19 | CC(=O)c1c(C)oc2c1cc(NS(=O)(=O)c1ccc(C(=O)O)cc1)c1ccccc12 [CBK299780] | 92
20 | COCCn1c(SCc2cn3ccccc3c2C#N)nc(C)c1C [CBK306282] | 92.4
21 | CCCN1C(=O)c2ccc(C(=O)Nc3cc(C(=O)O)cc(C(=O)O)c3)cc2C1=O [CBK266441] | 97
22 | O=S(=O)(Cc1csc(N2CCOCC2)n1)c1ccccn1 [CBK011137] | 90.1

Row | SMILES | viability at 28.5 h, 10 µM [%]
23 | Cc1ccc(-c2ccc(CCC(=O)O)n2CC(=O)O)cc1 [CBK286922] | 94.8
24 | C[C@@H]1CN(C(=O)c2n[nH]c3ccccc23)C[C@H](C)O1 [CBK200232] | 98.6
25 | Cn1nccc1C(=O)N1CCCC(c2cc3ncccc3[nH]2)C1 (centres unmarked) [CBK283413] | 104
26 | CCC(C)(C)c1ccc(S(=O)(=O)N2CCCN(Cc3c(-c4ccccc4)noc3C)CC2)cc1 [CBK062888] | 92.8
27 | O=C(Cn1nnc2ccccc21)NCCN1CCCC1 [CBK267200] | 106
28 | CN(c1ccccc1C(N)=O)S(=O)(=O)c1ccc(S(=O)(=O)C(F)F)cc1 [CBK298289] | 88.3
29 | CN(C)CCNc1ncnc2sc3c(c12)CCC3 [CBK265347] | 69.5
30 | CS(=O)(=O)Nc1ccc(C(=O)N2CC(=O)Nc3ccccc32)cc1 [CBK269827] | 90.8
31 | NC(=O)c1cccc(CN2CCOC3(CCN(C(=O)OCc4ccccc4)CC3)C2)c1 [CBK161100T] | 90.4
32 | COc1cc(-c2nccnc2NCC2CCCCC2)cc(OC)c1OC [CBK037647] | 93.9
33 | CCOc1ccccc1C(=O)N1CCC(Cc2ccc(-c3ccccc3)cc2)(C(N)=O)CC1 [CBK285775] | 97
34 | O=C(O)c1sccc1Oc1ccc(F)cc1[N+](=O)[O-] [CBK066847] | 112
35 | CC1CCc2nc3ncn(CC(=O)NC4CC4)c(=O)c3cc2C1 (centres unmarked) [CBK294401] | 88.3
36 | c1ccc2c(c1)CCN2c1ncnc2c1nc1n2CCCCC1 [CBK291119] | 91.1
37 | N#Cc1cc(CN2CCCN(S(=O)(=O)c3ccc(C(=O)c4ccccc4)cc3)CC2)ccc1F [CBK062768] | 109
38 | Cc1cccn2c(=O)cc(CN3CCC(CNc4ccccn4)C3)nc12 (centres unmarked) [CBK306123] | 103
39 | COc1cc(C2C3=C(CC(C)(C)CC3=O)Nc3ncnn32)ccc1OCC(=O)N1CCOCC1 (centres unmarked) [CBK268551] | 102
40 | CCOC(=O)c1cnc(SCCc2ccccc2)nc1N [CBK085871] | 88.1
41 | O=C(Nc1ccccc1-n1cccc1)C1Cc2c([nH]c3ccccc23)C2(CCN(Cc3ccccc3)C2)N1 (centres unmarked) [CBK059395] | 95.9
42 | CC(=O)c1ccc(C(=O)N2CCC3(CC2)CC(=O)c2ccc4ccccc4c2O3)cc1 [CBK156458] | 104
43 | Cc1cccc(CNc2nccnc2-c2cccc(Cl)c2)c1 [CBK037527] | 109
44 | N#CCCn1cc(C(=O)N2CCCCC2)c(-c2cc3ccccc3o2)n1 [CBK306206] | 95.1

Row | SMILES | viability at 28.5 h, 10 µM [%]
45 | Cc1ccn(CCNC(=O)Cn2c3c(c4ccccc42)CCC3)n1 [CBK282708] | 86.5
46 | CCOC(=O)c1cc(-c2ccc(OC)cc2)nn1-c1ccc(C(=O)O)cc1 [CBK296133] | 87.9
47 | O=C(c1ccco1)N1CCN(S(=O)(=O)c2ccc(Cl)cc2)CC1 [CBK068411] | 104
48 | COc1cnc(/C=C\c2ccccc2)c(NC(=O)c2ccco2)n1 [CBK145361] | 90.4
49 | COc1ccc(C(C)N(CCN2CCOCC2)C(=O)NCc2cccnc2)cc1OC (centres unmarked) [CBK158986] | 114
50 | CN(CC(=O)Nc1ccc(Cl)c(C(F)(F)F)c1)C(=O)c1cc(O)nc2ccccc12 [CBK295304] | 87.8
51 | Cc1cc(C(=O)Nc2ccc([C@@H](O)[C@H]3COCC(=O)N3Cc3ccccc3)cc2)n(C)n1 [CBK289669] | 89
52 | CC(C)NC(=O)CCn1c(-c2ccncc2)cc2cccnc21 [CBK284931] | 111
53 | Cc1cc(=O)[nH]c(N/N=C/c2ccc(Cl)cc2Cl)n1 [CBK024387] | 95.8
54 | O=C(NCc1ccc(C(=O)O)cc1)NC1CCCCC1 [CBK286980] | 84.5
55 | CC(C)c1cc(C(=O)N2CC(N3CCOCC3)C2)nc2ncnn12 [CBK306572] | 86.9
56 | CC(Oc1ccc(Br)cc1)C(=O)Nc1ccc(C(N)=O)cc1 (centres unmarked) [CBK266760] | 112
57 | Cc1cc(C)n(C)c(=O)c1C(=O)NCCCc1ccc(Cl)cc1 [CBK281566] | 88.2
58 | CN1CCC2(CC1)CC(=O)c1cc(-c3ccc(C(=O)N(C)CCC#N)cc3)ccc1O2 [CBK156518] | 89
59 | Cc1ccc(-c2cc(C3CCN(C(=O)c4cnn(C)c4)C3)[nH]n2)cc1 (centres unmarked) [CBK285266] | 85.4
60 | O=C(NC(N1CCOCC1)C(Cl)(Cl)Cl)c1ccc(Cl)cc1 (centres unmarked) [CBK261084] | 94.2
61 | CC(C)(C)OC(=O)N1CCN(Cc2nnc(Cc3ccccc3)o2)CC1 [CBK306223] | 94.1
62 | Cc1cccn2cc(C(=O)N3CC(C(=O)N4CCN(c5ccccc5)CC4)C3)nc12 [CBK285663] | 101
63 | CCOC(=O)N1CCN(CCCCc2ccc(F)cc2)CC1 [CBK025002C] | 105
64 | C=CCn1c2cc(C)sc2c2cnn(CC(=O)NC(C)C)c(=O)c21 [CBK284150] | 89
65 | CCCCN(C)c1nccnc1-c1cccnc1 [CBK037631] | 99.2
66 | COc1cc(OC)nc(CN2C(=O)CC3(C2=O)C(=O)N(CC(=O)c2ccccc2)c2ccc(C)cc23)n1 (centres unmarked) [CBK076059] | 96.7

Row | SMILES | viability at 28.5 h, 10 µM [%]
67 | Cn1cc(C(=O)NCC(c2ccc(F)cc2)N2CCCC2)ccc1=O (centres unmarked) [CBK282843] | 87.4
68 | CCc1ccc(OCC(=O)NC(=S)Nc2cccc3nsnc23)cc1 [CBK267173] | 100
69 | CCn1nc(C)c(C(C)NC(=O)C(C)n2cc(Cl)cn2)c1C (centres unmarked) [CBK281550] | 89.7
70 | O=C(Nc1ccccc1C(=O)O)c1cccc(NC(=O)c2ccco2)c1 [CBK299774] | 88.1
71 | CCS(=O)(=O)N1CC2CCCC(O)(c3ccc(F)cc3)C2C1 (centres unmarked) [CBK284363] | 80.5
72 | O=C(O)[C@@H]1CCCN1C(=O)C1CCC(Cn2nnc3ccccc3c2=O)CC1 (some centres unmarked) [CBK286658] | 88.6
73 | COc1ccc(CCC(=O)Nc2cccc(OCCC3CCNCC3)c2)cc1OC [CBK138350] | 95.6
74 | Cc1n[nH]c(C)c1CCC(=O)N/N=C/c1ccccn1 [CBK262887] | 92.9
75 | CCOC(=O)C1(Cc2ccc(F)cc2F)CCCN(S(=O)(=O)CC)C1 (centres unmarked) [CBK307655] | 92.6
76 | Cc1cc(C)c(S(=O)(=O)N2CCC(C(=O)Nc3ccc(C(N)=O)cc3)CC2)c(C)c1 [CBK266424] | 91.7
77 | CCOC(=O)c1sc(NC(=O)Nc2cccc(Cl)c2)c(C(N)=O)c1C [CBK262658] | 107
78 | Cc1nn2c(CN(C(=O)COc3ccccc3)c3ccccc3)nnc2c2ccccc12 [CBK268036] | 83.4
79 | c1ccc2c(c1)/C(=N/OCCN1CCCC1)CC21CCCCC1 [CBK013322] | 110
80 | CC(=O)C1=C(C)N(CC2CCCO2)C(=O)C1(NC(=O)c1ccc(C(C)(C)C)cc1)C(F)(F)F (centres unmarked) [CBK268043] | 93.2
81 | CCC(CC)Oc1ccc(C2(C)NC(=O)NC2=O)cc1 (centres unmarked) [CBK288409] | 96.4
82 | Cc1cc(C)nc(NC(=O)c2cccc(Cl)c2)n1 [CBK288165] | 90
83 | Cc1nc2c(c(N3CCN(c4ccc(O)cc4)CC3)n1)CN(Cc1ccccc1)CC2 [CBK286177] | 90.2
84 | CSCC(=O)N1C[C@@H]2C[C@H](C1)c1c(-c3ccc(NC(C)=O)cc3)ccc(=O)n1C2 [CBK289200] | 89.7
85 | CC(C)CN1CCCN(S(=O)(=O)c2ccc(C(F)(F)F)cc2Cl)CC1 [CBK062943] | 86.5
86 | NC(=O)Nc1ccc(C(=O)N2CCN(c3ccccc3)CC2)cc1 [CBK306392] | 101
